pIC50: −log10 of the molar value.
Key:
IMP-1 = IMP-1 (Serratia marcescens, UniProt P52699); assay: Enzyme activity: determination of IC50, fluorescence assay with CCF2-FA substrate; type: biochemical; conditions: enzyme 2 pM, CCF2-FA 1.25 μM, 2 hours at 25° C.; read-out: IMP1 IC50
Procedure, shortened: (§1)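 In pH 7 phosphate buffer (100 mM) with 10 μM ZnSO4 and 0.005% Tween-20, CCF2-FA substrate (1.25 μM final) was hydrolysed for 2 h at 25 °C by NDM-1, IMP-1 or VIM-1 at 1, 2 or 30 pM in the presence of inhibitor at 20–0.00063 μM. Emission 460 nm/excitation 405 nm; 4-parameter curve fit gave IC50.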

NDM-1 = NDM-1 (Klebsiella pneumoniae, UniProt C7C422); assay: as above; type: biochemical; conditions: enzyme 1 pM, CCF2-FA 1.25 μM, 2 hours at 25° C.; read-out: NDM1 IC50
Procedure, shortened: as §1

VIM-1 = VIM-1 (Pseudomonas aeruginosa, UniProt A0A0F7KYQ8); assay: as above; type: biochemical; conditions: enzyme 30 pM, CCF2-FA 1.25 μM, 2 hours at 25° C.; read-out: VIM1 IC50
Procedure, shortened: as §1

[1] = tested on: Escherichia coli expressing NDM-1 (CLB30005); assay: Antibiotic potentiation activity: synergistic concentration (MITC95) with imipenem, growth by OD600; type: cell-based; conditions: 95% inhibition of bacterial growth, strain CLB30005
Procedure, shortened: (§2)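 MITC95 = lowest inhibitor concentration giving 95% growth inhibition, read by absorbance after 22–24 h at 35° C. Compound range 200 μM to 0.195 μM, imipenem fixed at 1 or 4 μg/ml, bacteria in 1.1×CAMHB from saline suspension diluted 1:100.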

[2] = tested on: Klebsiella pneumoniae expressing VIM-1 (IHMA599644); assay: as above; type: cell-based; conditions: 95% inhibition of bacterial growth, strain IHMA599644
Procedure, shortened: as §2

[3] = tested on: Serratia marcescens expressing IMP-1 (CL5741); assay: as above; type: cell-based; conditions: 95% inhibition of bacterial growth, strain CL5741
Procedure, shortened: as §2

Sequence of IMP-1 (P52699 19-246, looked up, species assumed): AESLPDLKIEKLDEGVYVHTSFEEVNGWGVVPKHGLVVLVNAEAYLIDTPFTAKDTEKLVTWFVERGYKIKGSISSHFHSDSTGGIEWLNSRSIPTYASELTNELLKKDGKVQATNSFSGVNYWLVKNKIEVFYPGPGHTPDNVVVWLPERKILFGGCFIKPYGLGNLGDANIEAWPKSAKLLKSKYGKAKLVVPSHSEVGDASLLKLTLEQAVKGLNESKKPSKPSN
Sequence of NDM-1 (C7C422 29-270, looked up, species assumed): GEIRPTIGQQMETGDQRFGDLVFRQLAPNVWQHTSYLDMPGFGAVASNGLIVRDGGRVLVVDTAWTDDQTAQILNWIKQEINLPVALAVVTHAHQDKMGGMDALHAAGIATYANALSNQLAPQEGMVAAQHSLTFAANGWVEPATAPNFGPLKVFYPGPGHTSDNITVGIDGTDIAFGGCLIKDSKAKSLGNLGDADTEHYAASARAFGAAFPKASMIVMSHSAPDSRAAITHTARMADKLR

SMILES | pIC50 (IMP-1) | pIC50 (NDM-1) | pIC50 (VIM-1) | NDM1 EC30005 MITC95 [1] [µM] | VIM1 KP599644 MITC95 [2] [µM] | IMP1 SM5741 MITC95 [3] [µM]
CCC[C@H](C(=O)O)[C@H](Cc1ccc(-c2cccc(CN3CCCCC3)c2)cc1)c1nn[nH]n1 [Example 206, (2S)-2-[(1S)-2-[3′-(piperidin-1-ylmethyl)biphenyl-4-yl]-1-(2H-tetrazol-5-yl)ethyl]pentanoic acid] | 6.89 | 7.09 | 8.14 | 18.8 | 50 | 18.8
CCC[C@H](C(=O)O)[C@H](Cc1ccc(-c2cccc(CN3CCOCC3)c2)cc1)c1nn[nH]n1 [Example 207, (2S)-2-[(1S)-2-[3′-(morpholin-4-ylmethyl)biphenyl-4-yl]-1-(2H-tetrazol-5-yl)ethyl]pentanoic acid] | 7.00 | 7.19 | 8.10 | 16 | 150 | 16
CCC[C@H](C(=O)O)[C@H](Cc1ccc(-c2csc(N3CCOCC3)n2)cc1)c1nn[nH]n1 [Example 208, (2S)-2-[(1S)-2-[4-(2-morpholin-4-yl-1,3-thiazol-4-yl)phenyl]-1-(2H-tetrazol-5-yl)ethyl]pentanoic acid] | 7.00 | 7.21 | 7.80 | 25 | 200 | 18.8
CCC[C@H](C(=O)O)[C@H](Cc1ccc(-c2cccc(CN)c2)cc1)c1nn[nH]n1 [Example 210, (2S)-2-[(1S)-2-[3′-(aminomethyl)biphenyl-4-yl]-1-(2H-tetrazol-5-yl)ethyl]pentanoic acid] | 6.89 | 7.00 | 8.09 | 6.2 | 18.8 | 12.5
CCC[C@H](C(=O)O)[C@H](Cc1ccc(-c2ccc(CO)cc2)cc1)c1nn[nH]n1 [Example 211, (2S)-2-[(1S)-2-[4′-(hydroxymethyl)biphenyl-4-yl]-1-(2H-tetrazol-5-yl)ethyl]pentanoic acid] | 7.70 | 7.92 | 8.47 | 3.1 | 25 | 2.3
CCC[C@H](C(=O)O)[C@H](Cc1ccc(-c2cn(C)c(=O)n(C)c2=O)cc1)c1nn[nH]n1 [Example 212, (2S)-2-[(1S)-2-[4-(1,3-dimethyl-2,4-dioxo-1,2,3,4-tetrahydropyrimidin-5-yl)phenyl]-1-(2H-tetrazol-5-yl)ethyl]pentanoic acid] | 7.04 | 7.51 | 7.82 | 18.8 | 150 | 18.8
CCC[C@H](C(=O)O)[C@H](Cc1ccc(-c2ccc(C(C)(C)O)nc2)cc1)c1nn[nH]n1 [Example 213, (2S)-2-[(1S)-2-{4-[6-(1-hydroxy-1-methylethyl)pyridin-3-yl]phenyl}-1-(2H-tetrazol-5-yl)ethyl]pentanoic acid] | 6.92 | 7.55 | 7.77 | 9.4 | 75 | 18.8
CCC[C@H](C(=O)O)[C@H](Cc1ccc(-c2ccccc2CN2CCOCC2)cc1)c1nn[nH]n1 [Example 214, (2S)-2-[(1S)-2-[2′-(morpholin-4-ylmethyl)biphenyl-4-yl]-1-(2H-tetrazol-5-yl)ethyl]pentanoic acid] | 8.00 | 7.62 | 6.74 | 7.8 | >200 | 2.0
CCC[C@H](C(=O)O)[C@H](Cc1ccc(-c2cnn(C)c2)cc1)c1nnn[nH]1 [Example 233, (2S)-2-[(1S)-2-[4-(1-methyl-1H-pyrazol-4-yl)phenyl]-1-(1H-tetrazol-5-yl)ethyl]pentanoic acid] | 7.28 | 7.74 | 8.40 | 18.8 | 75 | 16
CCC[C@H](C(=O)O)[C@H](Cc1ccc(-c2ccc3c(c2)CNC3=O)cc1)c1nnn[nH]1 [Example 234, (2S)-2-[(1S)-2-[4-(1-oxo-2,3-dihydro-1H-isoindol-5-yl)phenyl]-1-(1H-tetrazol-5-yl)ethyl]pentanoic acid] | 7.25 | 7.77 | 8.54 | 25 | 50 | 7.0
CCC[C@H](C(=O)O)[C@H](Cc1ccc(-c2c(C)nn(C)c2C)cc1)c1nnn[nH]1 [Example 235, (2S)-2-{(1S)-1-(1H-tetrazol-5-yl)-2-[4-(1,3,5-trimethyl-1H-pyrazol-4-yl)phenyl]ethyl}pentanoic acid] | 8.24 | 8.08 | 8.12 | 100 | >200 | 0.78
CCC[C@H](C(=O)O)[C@H](Cc1ccc(-c2ccc3c(c2)CNCC3)cc1)c1nnn[nH]1 [Example 236, (2S)-2-[(1S)-2-[4-(1,2,3,4-tetrahydroisoquinolin-7-yl)phenyl]-1-(1H-tetrazol-5-yl)ethyl]pentanoic acid] | 7.15 | 7.00 | 8.36 | 12.5 | 50 | 7.8
CCC[C@H](C(=O)O)[C@H](Cc1ccc(-c2ccc3c(c2)CCNC3)cc1)c1nnn[nH]1 [Example 237, (2S)-2-[(1S)-2-[4-(1,2,3,4-tetrahydroisoquinolin-6-yl)phenyl]-1-(1H-tetrazol-5-yl)ethyl]pentanoic acid] | 7.06 | 7.06 | 8.40 | 9.4 | 38 | 4.7
CCC[C@H](C(=O)O)[C@H](Cc1ccc(-c2cccc3c2CNC3=O)cc1)c1nnn[nH]1 [Example 238, (2S)-2-[(1S)-2-[4-(1-oxo-2,3-dihydro-1H-isoindol-4-yl)phenyl]-1-(1H-tetrazol-5-yl)ethyl]pentanoic acid] | 7.31 | 8.19 | 8.77 | 50 | 200 | 6.2
CCC[C@H](C(=O)O)[C@H](Cc1ccc(-c2ccc3nncn3c2)cc1)c1nnn[nH]1 [Example 239, (2S)-2-[(1S)-1-(1H-tetrazol-5-yl)-2-(4-[1,2,4]triazolo[4,3-a]pyridin-6-ylphenyl)ethyl]pentanoic acid] | 6.72 | 7.70 | 8.77 | 38 | 75 | 38
CCC[C@H](C(=O)O)[C@H](Cc1ccc(-c2ccc(CN(C)C)cc2)cc1)c1nnn[nH]1 [Example 240, (2S)-2-[(1S)-2-{4′-[(dimethylamino)methyl]biphenyl-4-yl}-1-(1H-tetrazol-5-yl)ethyl]pentanoic acid] | 7.12 | 7.00 | 8.19 | 25 | 125 | 7.8
CCC[C@H](C(=O)O)[C@H](Cc1ccc(-c2ccc3ncnn3c2)cc1)c1nnn[nH]1 [Example 241, (2S)-2-[(1S)-1-(1H-tetrazol-5-yl)-2-(4-[1,2,4]triazolo[1,5-a]pyridin-6-ylphenyl)ethyl]pentanoic acid] | 7.24 | 7.89 | 9.19 | 75 | 38 | 9.4
CCC[C@H](C(=O)O)[C@H](Cc1ccc(-c2cnc(N(C)S(C)(=O)=O)nc2)cc1)c1nnn[nH]1 [Example 242, (2S)-2-[(1S)-2-(4-{2-[methyl(methyl-sulfonyl)amino]pyrimidin-5-yl}phenyl)-1-(1H-tetrazol-5-yl)ethyl]pentanoic acid] | 7.15 | 8.03 | 8.80 | 38 | 100 | 12.5
CCC[C@H](C(=O)O)[C@H](Cc1ccc(C2=CCCN(C)C2)cc1)c1nnn[nH]1 [Example 243, (2S)-2-[(1S)-2-[4-(1-methyl-1,2,5,6-tetrahydropyridin-3-yl)phenyl]-1-(1H-tetrazol-5-yl)ethyl]pentanoic acid] | 6.30 | 6.40 | 8.42 | 18.8 | 25 | 25

Source: patent US9839642B2, “Beta-tetrazolyl-propionic acids as metallo-beta-lactamase inhibitors” (priority 2014, dated 2017)
